Data on eight molecules can be found in patent publication US8865623B2, “Herbicidally active cyclic diones and derivatives thereof, processes for their preparation, compositions, and method of controlling weeds” (Syngenta Limited, priority 2009, dated 2014).

Holding throughout (type): in vivo
Assay [1] deals with Alopecurus myosuroides (ALOMY). Briefly: Pre-emergence herbicidal activity, glasshouse pot test. As to conditions: Alopecurus myosuroides, 312 h; Rate 250 g/ha; pre-emergence spray; evaluated after 13 days; read-out: Pre-emergence activity ALOMY (100=total damage to plant; 0=no damage to plant). The procedure, abridged:
(§1)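 Potted plants sprayed one day after sowing (pre-emergence) or after 8 days (post-emergence) with formulation in acetone/water (50:50) containing 0.5% Tween 20. Glasshouse at 24/16 °C, 14 h light, 65% humidity; damage scored after 13 days (0 none, 100 total).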

The subject of assay [2] is Avena fatua (AVEFA). The assay is described as above. The conditions noted are these: Avena fatua, 312 h; Rate 250 g/ha; pre-emergence spray; evaluated after 13 days; read-out: Pre-emergence activity AVEFA (100=total damage to plant; 0=no damage to plant). A digest of the protocol: as §1
Assay [3] relates to Echinochloa crus-galli (ECHCG). Described as above. As to conditions: Echinochloa crus-galli, 312 h; Rate 250 g/ha; pre-emergence spray; evaluated after 13 days; read-out: Pre-emergence activity ECHCG (100=total damage to plant; 0=no damage to plant). A digest of the protocol:
as §1

In assay [4] the test system is Lolium perenne (LOLPE). The assay is described as above. As to conditions: Lolium perenne, 312 h; Rate 250 g/ha; pre-emergence spray; evaluated after 13 days; read-out: Pre-emergence activity LOLPE (100=total damage to plant; 0=no damage to plant). The procedure, abridged:
as §1

Assay [5] deals with Alopecurus myosuroides (ALOMY). Briefly: Post-emergence herbicidal activity, glasshouse pot test. As to conditions: Alopecurus myosuroides, 312 h, rate 250 g/ha, evaluated after 13 days, glasshouse, read-out: Post-emergence activity ALOMY (100=total damage to plant; 0=no damage to plant). A digest of the protocol:
as §1

Assay [6] deals with Avena fatua (AVEFA). Described as above. As to conditions: Avena fatua, 312 h, rate 250 g/ha, evaluated after 13 days, glasshouse, read-out: Post-emergence activity AVEFA (100=total damage to plant; 0=no damage to plant). A digest of the protocol:
as §1

For assay [7], the system named is Echinochloa crus-galli (ECHCG). The description is as above. As to conditions: Echinochloa crus-galli, 312 h, rate 250 g/ha, evaluated after 13 days, glasshouse, read-out: Post-emergence activity ECHCG (100=total damage to plant; 0=no damage to plant). A digest of the protocol:
as §1

The test system of assay [8] is Lolium perenne (LOLPE). The assay is described as above. As to conditions: Lolium perenne, 312 h, rate 250 g/ha, evaluated after 13 days, glasshouse, read-out: Post-emergence activity LOLPE (100=total damage to plant; 0=no damage to plant). A digest of the protocol: as §1

The structures appear in SMILES notation.

Consider `CCc1ccc(Oc2ncc(Cl)cn2)cc1C1=C(O)CC2(CCOCC2)CC1=O` [Example A-263], for which the pest or weed control at 250 g/ha worked out at 60% in assay [1]; 20% in assay [2]; 100% in assay [3]; 50% in assay [4]; 100% in assay [5]; 90% in assay [6]. Also, the pest or weed control at 250 g/ha in assay [7] is 100%; in assay [8], 60%.

Take `CCc1ccc(Oc2nc3ccc(OC)cc3s2)cc1C1=C(O)CC2(CCOCC2)CC1=O` [Example A-264]: the pest or weed control at 250 g/ha stood at 90% in assay [1]; 80% in assay [2]; 100% in assay [3]; 90% in assay [4]; 90% in assay [5]; 90% in assay [6]. The pest or weed control at 250 g/ha in assay [7] and in assay [8] was 100% each time.

With `CCc1ccc(Oc2nc3ccc([N+](=O)[O-])cc3s2)cc1C1=C(O)CC2(CCOCC2)CC1=O` [Example A-265], the pest or weed control at 250 g/ha in assay [1] stood at 60%; in assay [2], 0%; in assay [3] it was 90%; in assay [4], 80%; in assay [5] it was 70%; in assay [6] it was 70%. For the same molecule, the pest or weed control at 250 g/ha in assay [7] is 100%; in assay [8] it was 70%.

Turning to `CCc1ccc(Oc2ccc(C(F)(F)F)c(C#N)c2)cc1C1=C(O)CC2(CCOCC2)CC1=O` [Example A-266], the pest or weed control at 250 g/ha amounted to 50% in assay [1]; 50% in assay [2]; 90% in assay [3]; 90% in assay [4]; 90% in assay [5]; 90% in assay [6]. In addition, the figures for the pest or weed control at 250 g/ha in assay [7] and in assay [8] were 100% and 70%, respectively.

As to `CCc1ccc(Oc2ccc(C(F)(F)F)cn2)cc1C1=C(O)CC2(CCOCC2)CC1=O` [Example A-267], the pest or weed control at 250 g/ha in assay [1], in assay [2], in assay [3], in assay [4], in assay [5] and in assay [6] was 100% in each case. Further, the pest or weed control at 250 g/ha in assay [7] and in assay [8] was 100% each time.

In the case of `CCc1ccc(Oc2ncc(Cl)cc2C(F)(F)F)cc1C1=C(O)CC2(CCOCC2)CC1=O` [Example A-268], the pest or weed control at 250 g/ha in assay [1] stood at 90%; in assay [2], 80%; in assay [3], 100%; in assay [4], 100%; in assay [5] it was 90%; in assay [6] it was 90%. Further, the pest or weed control at 250 g/ha in assay [7] stood at 100%; in assay [8], 70%.

For `CCc1ccc(Oc2ncc(C(F)(F)F)cc2C(F)(F)F)cc1C1=C(O)CC2(CCOCC2)CC1=O` [Example A-269], the pest or weed control at 250 g/ha amounted to 100% in assay [1]; 80% in assay [2]; 100% in assay [3]; 90% in assay [4]; 90% in assay [5]; 90% in assay [6]. In addition, the pest or weed control at 250 g/ha in assay [7] is 100%; in assay [8], 70%.

`CCc1ccc(Oc2ccc(C#N)cc2F)cc1C1=C(O)CC2(CCOCC2)CC1=O` [Example A-270]: the pest or weed control at 250 g/ha came out at 90% in assay [1]; 60% in assay [2]; 100% in assay [3]; 90% in assay [4]; 90% in assay [5]; 90% in assay [6]. In addition, the pest or weed control at 250 g/ha in assay [7] came out at 100%; in assay [8] it was 70%.
